{"source": "patent US20220213198A1", "about": "“METHOD OF TREATMENT” (The Council of the Queensland Institute of Medical Research, priority 2019, published 2022)", "molecules": {"B1": {"name": "8F2.F9: anti-MR1 blocking antibody from hybridoma clone 8F2.F9, IgG1 isotype; heavy chain SEQ ID NO: 14, light chain SEQ ID NO: 18 (antibody, listed as Mus musculus, V domains shown)", "VH": "MKFSWVIFFLMAVVTGVNSEVQLQQSVAELVRPGASVKLSCTASGFNIKNTYMHWVKKRPELGLEWIGRIDPANGNTNFAPKFQGKATITADTSSNTAYLQLSSLTSEDTAIYYCPRGSGNYYFDYWGQGTTLTVSS", "VL": "MSSAQFLGLLLLCFQGTRCDIQMTQTTSSLSASLGDRVTISCRASQDISNYLNWYQQKPDGPVKLLIYYTSRLHSGVPSRFSGSGSGTDYSLTINNLAQEDIATYFCQQGNTLPYTFGGGTKLEIK"}}, "system": "LWT1 melanoma cells", "experiment": "LWT1 experimental lung metastasis model", "format": "in vivo, mouse", "conditions": "day 14", "method": "FIG. 2. Up-regulation of MR1 on B16F10 cells increases lung metastases that is dependent on MAIT cells. (A) The schematic and timeline of expanding MAIT cells from splenocytes derived from C57BL/6 WT mice with IL-2 and 5-OP-RU, for sorting and adoptive transfer into tumor-bearing mice. (B, C) Groups of WT or MR1^−/− or Rag2cγ^−/− mice (n=5-6/group) were injected i.v. with (B) 1×10^5 or (C) 1×10^4 B16F10 melanoma cells. In some groups, sorted MAIT or T conventional cells (cT) (non-MAIT αβ^+ T cells) (2×10^5 cells/mouse) from C57BL/6 (B) WT or (C) TCRδ^−/− mice were i.v. injected into the indicated groups of mice one day before tumor inoculation. (C) One group of mice received i.v injection of media alone as a control. (B, C) On day 14 relative to tumor cell inoculation, lungs were harvested and the metastatic burden was quantified by counting colonies on the lung surface. Data presented as mean±SEM. (D) B16F10 or LWT1 melanoma cells were stimulated in vitro with DMSO or 5-OP-RU (100 nM) for 4 hours before cell surface MR1 expression was determined by flow cytometry. […] Fourteen days later relative to tumor cell inoculation, lungs were harvested and the metastatic burden was quantified by counting colonies on the lung surface. […] Significant differences between groups as indicated by crossbars were determined using a one-way ANOVA followed by Tukey's post-hoc test (B, E, F), *p<0.05, **p<0.01, ****p<0.0001\nFIG. 6. […] (A-D) On day 14, lungs were harvested and the metastatic burden was quantified by counting colonies on the lung surface. […] (E, F), Mice were monitored for tumor growth (calculated by the product of 2 perpendicular axes). […] Significant differences between groups as indicated by crossbars were determined by a one-way ANOVA followed by Tukey's post-hoc test (A, B) or a Mann-Whitney test (C, […]), *p<0.05, **p<0.01, ***p<0.001.\nThe indicated numbers of B16F10 and LWT1 cells were injected intravenously (i.v.) into the tail vein of WT or gene-targeted mice. […] Lungs were harvested on day 14, and surface tumor nodules were counted under a dissection microscope. […]", "data": [{"molecule": "CC(=O)C=Nc1c(NC[C@H](O)[C@H](O)[C@H](O)CO)[nH]c(=O)[nH]c1=O", "note": "[5-OP-RU]", "values": [{"measurement": "number of lung metastases", "setting": "MR1-/- mice i.v. injected with pre-treated LWT1, vs DMSO-treated", "result": "this increase was lost"}, {"measurement": "number of lung metastases", "setting": "WT mice i.v. injected with LWT1 pre-treated 100 nM 4 h, vs DMSO-treated", "result": "significantly increased"}]}, {"molecule": "B1", "values": [{"measurement": "LWT1 lung metastases", "setting": "250 μg/mouse i.p. days -1, 0 and 3, vs cIg", "result": "significantly reduced"}]}]}
